# Results taken from patent US20020111274A1, “1-alkyl-3-[1-(substituted phenyl) benzotriazol-6-yl] uracils” (BASF Aktiengesellschaft, priority 2000, published 2002).
# Legend:
# Set-up in all cases: scale not given here
# ABUTH Velvetleaf [1] = test: Postemergence herbicidal evaluation, ABUTH; assay type: in vivo, Abutilon theophrasti, Medic.
# Method in brief: (§1)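 Seedlings grown about two weeks were sprayed with compound in 80/20 acetone/water containing 1.0% methylated seed oil, at the equivalent of about 0.006 to 0.400 kg/ha, through a nozzle at 40 psi. Plants were kept in the greenhouse and rated visually about two to three weeks after treatment.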
# [2] = test system: TRZAWR Wheat, Winter, cv Riband; test: Preemergence herbicidal evaluation, TRZAWR; assay type: in vivo, Triticum aestivum; conditions: for TRZAWR herbicidal rating: preemergence; for Preemergence herbicidal rating, TRZAWR: rated four to five weeks after treatment
# Method in brief: (§2)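 Visual ratings were taken four to five weeks after application. Before that, cups sown with seed in potting soil received a spray of compound dissolved in aqueous acetone, equivalent to about 0.013 to 0.800 kg/ha, and stood on greenhouse benches under conventional care.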
# [3] = test system: CHEAL Lambsquarters, Common; test: Postemergence herbicidal evaluation, CHEAL; assay type: in vivo, Chenopodium album, L.
# Method in brief: as §1
# GLXMAW Soybean, Williams [4] = test: Preemergence herbicidal evaluation, GLXMAW; assay type: in vivo, Glycine max, (L.) Merr. cv Williams; conditions: for GLXMAW herbicidal rating: preemergence; for Preemergence herbicidal rating, GLXMAW: rated four to five weeks after treatment
# Method in brief: as §2
# SETVI Foxtail, Green [5] = test: Preemergence herbicidal evaluation, SETVI; assay type: in vivo, Setaria viridis, (L.) Beau; conditions: for SETVI herbicidal rating: preemergence; for Preemergence herbicidal rating, SETVI: rated four to five weeks after treatment
# Method in brief: as §2
# ORYSAT Rice, Tebonnet [6] = test: Postemergence herbicidal evaluation, ORYSAT; assay type: in vivo, Oryza sativa, (L.)
# Method in brief: as §1
# ZEAMX Corn, Field [7] = test: Preemergence herbicidal evaluation, ZEAMX; assay type: in vivo, Zea mays, L. (Sammel-Bezeichnung); conditions: for ZEAMX herbicidal rating: preemergence; for Preemergence herbicidal rating, ZEAMX: rated four to five weeks after treatment
# Method in brief: as §2
# GLXMAW Soybean, Williams [8] = test: Postemergence herbicidal evaluation, GLXMAW; assay type: in vivo, Glycine max, (L.) Merr. cv Williams
# Method in brief: as §1
# ECHOG Barnyardgrass [9] = test: Postemergence herbicidal evaluation, ECHOG; assay type: in vivo, Echinochloa crus-galli, (L.) Beau
# Method in brief: as §1
# ABUTH Velvetleaf [10] = test: Preemergence herbicidal evaluation, ABUTH; assay type: in vivo, Abutilon theophrasti, Medic.; conditions: for ABUTH herbicidal rating: preemergence
# Method in brief: as §2
# [11] = test system: IPOHE Morningglory, Ivyleaf; test: Preemergence herbicidal evaluation, IPOHE; assay type: in vivo, Ipomoea hederacea, (L.) Jacq.; conditions: for IPOHE herbicidal rating: preemergence; for Preemergence herbicidal rating, IPOHE: rated four to five weeks after treatment
# Method in brief: as §2
# GALAP Galium [12] = test: Postemergence herbicidal evaluation, GALAP; assay type: in vivo, Galium aparine
# Method in brief: as §1
# [13] = test system: CHEAL Lambsquarters, Common; test: Preemergence herbicidal evaluation, CHEAL; assay type: in vivo, Chenopodium album, L.; conditions: for CHEAL herbicidal rating: preemergence; for Preemergence herbicidal rating, CHEAL: rated four to five weeks after treatment
# Method in brief: as §2
# CASOB Sicklepod [14] = test: Postemergence herbicidal evaluation, CASOB; assay type: in vivo, Cassia obtusifolia, L.
# Method in brief: as §1
# GALAP Galium [15] = test: Preemergence herbicidal evaluation, GALAP; assay type: in vivo, Galium aparine; conditions: for GALAP herbicidal rating: preemergence; for Preemergence herbicidal rating, GALAP: rated four to five weeks after treatment
# Method in brief: as §2
# AMBEL Ragweed, Common [16] = test: Postemergence herbicidal evaluation, AMBEL; assay type: in vivo, Ambrosia artemisifolia, L.
# Method in brief: as §1
# CASOB Sicklepod [17] = test: Preemergence herbicidal evaluation, CASOB; assay type: in vivo, Cassia obtusifolia, L.; conditions: for CASOB herbicidal rating: preemergence; for Preemergence herbicidal rating, CASOB: rated four to five weeks after treatment
# Method in brief: as §2
# ECHOG Barnyardgrass [18] = test: Preemergence herbicidal evaluation, ECHOG; assay type: in vivo, Echinochloa crus-galli, (L.) Beau; conditions: for ECHCG herbicidal rating: preemergence; for Preemergence herbicidal rating, ECHCG: rated four to five weeks after treatment
# Method in brief: as §2
# ZEAMX Corn, Field [19] = test: Postemergence herbicidal evaluation, ZEAMX; assay type: in vivo, Zea mays, L. (Sammel-Bezeichnung)
# Method in brief: as §1
# AMBEL Ragweed, Common [20] = test: Preemergence herbicidal evaluation, AMBEL; assay type: in vivo, Ambrosia artemisifolia, L.; conditions: for AMBEL herbicidal rating: preemergence; for Preemergence herbicidal rating, AMBEL: rated four to five weeks after treatment
# Method in brief: as §2
# [21] = test system: TRZAWR Wheat, Winter, cv Riband; test: Postemergence herbicidal evaluation, TRZAWR; assay type: in vivo, Triticum aestivum
# Method in brief: as §1
# [22] = test system: IPOHE Morningglory, Ivyleaf; test: Postemergence herbicidal evaluation, IPOHE; assay type: in vivo, Ipomoea hederacea, (L.) Jacq.
# Method in brief: as §1
# SETVI Foxtail, Green [23] = test: Postemergence herbicidal evaluation, SETVI; assay type: in vivo, Setaria viridis, (L.) Beau
# Method in brief: as §1
# ORYSAT Rice, Tebonnet [24] = test: Preemergence herbicidal evaluation, ORYSAT; assay type: in vivo, Oryza sativa, (L.); conditions: for ORYSAT herbicidal rating: preemergence; for Preemergence herbicidal rating, ORYSAT: rated four to five weeks after treatment
# Method in brief: as §2
# [25] = 0.016 kg/ha, postemergence spray, rated about two-three weeks after treatment
# [26] = 0.032 kg/ha, postemergence spray, rated about two-three weeks after treatment
# [27] = 0.062 kg/ha, postemergence spray, rated about two-three weeks after treatment
# [28] = rate 0.008 kg/ha, rated two - three weeks after treatment
smiles,measurement,setting,value
Cn1c(C(F)(F)F)cc(=O)n(-c2cc3c(cc2F)nnn3-c2ccc(OCC(=O)O)cc2)c1=O [Example 44],Postemergence herbicidal rating ABUTH,ABUTH Velvetleaf [1]; [25],9.0
same,Postemergence herbicidal rating ABUTH,ABUTH Velvetleaf [1]; [26],7.0
same,Postemergence herbicidal rating ABUTH,ABUTH Velvetleaf [1]; [27],9.0
same,Postemergence herbicidal rating ABUTH,ABUTH Velvetleaf [1]; [28],9.0
same,TRZAWR herbicidal rating,[2]; rate 0.062 kg/ha,1.0
same,TRZAWR herbicidal rating,[2]; rate 0.125 kg/ha,1.0
same,"Preemergence herbicidal rating, TRZAWR",[2]; rate 0.016 kg/ha,0.0
same,"Preemergence herbicidal rating, TRZAWR",[2]; rate 0.032 kg/ha,0.0
same,Postemergence herbicidal rating CHEAL,[3]; [25],7.0
same,Postemergence herbicidal rating CHEAL,[3]; [26],6.0
same,Postemergence herbicidal rating CHEAL,[3]; [27],9.0
same,Postemergence herbicidal rating CHEAL,[3]; [28],5.0
same,GLXMAW herbicidal rating,"GLXMAW Soybean, Williams [4]; rate 0.062 kg/ha",0.0
same,GLXMAW herbicidal rating,"GLXMAW Soybean, Williams [4]; rate 0.125 kg/ha",0.0
same,"Preemergence herbicidal rating, GLXMAW","GLXMAW Soybean, Williams [4]; rate 0.016 kg/ha",0.0
same,"Preemergence herbicidal rating, GLXMAW","GLXMAW Soybean, Williams [4]; rate 0.032 kg/ha",0.0
same,SETVI herbicidal rating,"SETVI Foxtail, Green [5]; rate 0.062 kg/ha",3.0
same,SETVI herbicidal rating,"SETVI Foxtail, Green [5]; rate 0.125 kg/ha",9.0
same,"Preemergence herbicidal rating, SETVI","SETVI Foxtail, Green [5]; rate 0.016 kg/ha",0.0
same,"Preemergence herbicidal rating, SETVI","SETVI Foxtail, Green [5]; rate 0.032 kg/ha",0.0
same,Postemergence herbicidal rating ORYSAT,"ORYSAT Rice, Tebonnet [6]; [25]",2.5
same,Postemergence herbicidal rating ORYSAT,"ORYSAT Rice, Tebonnet [6]; [26]",2.5
same,Postemergence herbicidal rating ORYSAT,"ORYSAT Rice, Tebonnet [6]; [27]",3.0
same,Postemergence herbicidal rating ORYSAT,"ORYSAT Rice, Tebonnet [6]; [28]",2.5
same,ZEAMX herbicidal rating,"ZEAMX Corn, Field [7]; rate 0.062 kg/ha",1.0
same,ZEAMX herbicidal rating,"ZEAMX Corn, Field [7]; rate 0.125 kg/ha",1.0
same,"Preemergence herbicidal rating, ZEAMX","ZEAMX Corn, Field [7]; rate 0.016 kg/ha",0.0
same,"Preemergence herbicidal rating, ZEAMX","ZEAMX Corn, Field [7]; rate 0.032 kg/ha",0.0
same,Postemergence herbicidal rating GLXMAW,"GLXMAW Soybean, Williams [8]; [25]",6.5
same,Postemergence herbicidal rating GLXMAW,"GLXMAW Soybean, Williams [8]; [26]",6.5
same,Postemergence herbicidal rating GLXMAW,"GLXMAW Soybean, Williams [8]; [27]",7.0
same,Postemergence herbicidal rating GLXMAW,"GLXMAW Soybean, Williams [8]; [28]",5.0
same,Postemergence herbicidal rating ECHCG,ECHOG Barnyardgrass [9]; [25],4.0
same,Postemergence herbicidal rating ECHCG,ECHOG Barnyardgrass [9]; [26],6.0
same,Postemergence herbicidal rating ECHCG,ECHOG Barnyardgrass [9]; [27],6.0
same,Postemergence herbicidal rating ECHCG,ECHOG Barnyardgrass [9]; [28],3.0
same,ABUTH herbicidal rating,ABUTH Velvetleaf [10]; rate 0.062 kg/ha,7.0
same,ABUTH herbicidal rating,ABUTH Velvetleaf [10]; rate 0.125 kg/ha,9.0
same,"Preemergence herbicidal rating, ABUTH","ABUTH Velvetleaf [10]; rate 0.032 kg/ha, rated four to five weeks after treatment",0.0
same,IPOHE herbicidal rating,[11]; rate 0.062 kg/ha,0.0
same,IPOHE herbicidal rating,[11]; rate 0.125 kg/ha,2.0
same,"Preemergence herbicidal rating, IPOHE",[11]; rate 0.016 kg/ha,0.0
same,"Preemergence herbicidal rating, IPOHE",[11]; rate 0.032 kg/ha,0.0
same,Postemergence herbicidal rating GALAP,GALAP Galium [12]; [25],0.0
same,Postemergence herbicidal rating GALAP,GALAP Galium [12]; [26],1.0
same,Postemergence herbicidal rating GALAP,GALAP Galium [12]; [27],2.0
same,Postemergence herbicidal rating GALAP,GALAP Galium [12]; [28],0.0
same,CHEAL herbicidal rating,[13]; rate 0.062 kg/ha,9.0
same,CHEAL herbicidal rating,[13]; rate 0.125 kg/ha,9.0
same,"Preemergence herbicidal rating, CHEAL",[13]; rate 0.016 kg/ha,9.0
same,"Preemergence herbicidal rating, CHEAL",[13]; rate 0.032 kg/ha,9.0
same,Postemergence herbicidal rating CASOB,CASOB Sicklepod [14]; [25],0.0
same,Postemergence herbicidal rating CASOB,CASOB Sicklepod [14]; [26],1.0
same,Postemergence herbicidal rating CASOB,CASOB Sicklepod [14]; [27],2.0
same,Postemergence herbicidal rating CASOB,CASOB Sicklepod [14]; [28],0.0
same,GALAP herbicidal rating,GALAP Galium [15]; rate 0.062 kg/ha,4.0
same,GALAP herbicidal rating,GALAP Galium [15]; rate 0.125 kg/ha,7.0
same,"Preemergence herbicidal rating, GALAP",GALAP Galium [15]; rate 0.016 kg/ha,3.0
same,"Preemergence herbicidal rating, GALAP",GALAP Galium [15]; rate 0.032 kg/ha,5.0
same,Postemergence herbicidal rating AMBEL,"AMBEL Ragweed, Common [16]; [25]",3.0
same,Postemergence herbicidal rating AMBEL,"AMBEL Ragweed, Common [16]; [26]",6.0
same,Postemergence herbicidal rating AMBEL,"AMBEL Ragweed, Common [16]; [27]",7.0
same,Postemergence herbicidal rating AMBEL,"AMBEL Ragweed, Common [16]; [28]",3.0
same,CASOB herbicidal rating,CASOB Sicklepod [17]; rate 0.062 kg/ha,2.0
same,CASOB herbicidal rating,CASOB Sicklepod [17]; rate 0.125 kg/ha,0.0
same,"Preemergence herbicidal rating, CASOB",CASOB Sicklepod [17]; rate 0.016 kg/ha,0.0
same,"Preemergence herbicidal rating, CASOB",CASOB Sicklepod [17]; rate 0.032 kg/ha,1.0
same,ECHCG herbicidal rating,ECHOG Barnyardgrass [18]; rate 0.062 kg/ha,0.0
same,ECHCG herbicidal rating,ECHOG Barnyardgrass [18]; rate 0.125 kg/ha,0.0
same,"Preemergence herbicidal rating, ECHCG",ECHOG Barnyardgrass [18]; rate 0.016 kg/ha,0.0
same,"Preemergence herbicidal rating, ECHCG",ECHOG Barnyardgrass [18]; rate 0.032 kg/ha,0.0
same,Postemergence herbicidal rating ZEAMX,"ZEAMX Corn, Field [19]; [25]",6.5
same,Postemergence herbicidal rating ZEAMX,"ZEAMX Corn, Field [19]; [26]",6.5
same,Postemergence herbicidal rating ZEAMX,"ZEAMX Corn, Field [19]; [27]",7.0
same,Postemergence herbicidal rating ZEAMX,"ZEAMX Corn, Field [19]; [28]",4.5
same,AMBEL herbicidal rating,"AMBEL Ragweed, Common [20]; rate 0.062 kg/ha",0.0
same,AMBEL herbicidal rating,"AMBEL Ragweed, Common [20]; rate 0.125 kg/ha",0.0
same,"Preemergence herbicidal rating, AMBEL","AMBEL Ragweed, Common [20]; rate 0.016 kg/ha",1.0
same,"Preemergence herbicidal rating, AMBEL","AMBEL Ragweed, Common [20]; rate 0.032 kg/ha",0.0
same,Postemergence herbicidal rating TRZAWR,[21]; [25],4.0
same,Postemergence herbicidal rating TRZAWR,[21]; [26],3.5
same,Postemergence herbicidal rating TRZAWR,[21]; [27],4.0
same,Postemergence herbicidal rating TRZAWR,[21]; [28],3.0
same,Postemergence herbicidal rating IPOHE,[22]; [25],7.0
same,Postemergence herbicidal rating IPOHE,[22]; [26],9.0
same,Postemergence herbicidal rating IPOHE,[22]; [27],9.0
same,Postemergence herbicidal rating IPOHE,[22]; [28],7.0
same,Postemergence herbicidal rating SETVI,"SETVI Foxtail, Green [23]; [25]",4.0
same,Postemergence herbicidal rating SETVI,"SETVI Foxtail, Green [23]; [26]",7.0
same,Postemergence herbicidal rating SETVI,"SETVI Foxtail, Green [23]; [27]",7.0
same,Postemergence herbicidal rating SETVI,"SETVI Foxtail, Green [23]; [28]",4.0
same,ORYSAT herbicidal rating,"ORYSAT Rice, Tebonnet [24]; rate 0.062 kg/ha",5.0
same,ORYSAT herbicidal rating,"ORYSAT Rice, Tebonnet [24]; rate 0.125 kg/ha",5.0
same,"Preemergence herbicidal rating, ORYSAT","ORYSAT Rice, Tebonnet [24]; rate 0.016 kg/ha",0.0
same,"Preemergence herbicidal rating, ORYSAT","ORYSAT Rice, Tebonnet [24]; rate 0.032 kg/ha",0.0
